Structures can show the parent of a compound that is named as a salt. Where two headings read alike, the source gives them in different places.
How the values were obtained:
[1] = molecular target: His-GST-TVMV-hRIPK1(1-324) (Homo sapiens (Human), UniProt Q13546); assay: RIPK1 HTRF Binding Assay; settings: HTRF binding, 1 h at rt; read-out: RIPK1 (IC50)
In short: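 HTRF probe-displacement binding: 1 nM His-GST-TVMV-hRIPK1(1-324) (baculovirus construct), 90.6 nM probe, 0.2 nM anti-GST-Tb in 20 mM HEPES, 10 mM MgCl2, 0.015% Brij-35, 4 mM DTT, 0.05 mg/mL BSA. Incubated 1 h at rt; FRET 520/495 nm ratio, inhibition relative to DMSO-only wells.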

[2] = system: MLKL phosphorylation in HT29-L23 human colorectal adenocarcinoma cells; assay: MLKL Phosphorylation High-Content Assay; type: cell-based; settings: 6 h, necroptosis induced with TNFα, SMAC mimetic and Z-VAD, read-out: pMLKL (IC50)
In short: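 HT29-L23 cells pretreated 30 min at 37 °C with compound (6.25 to 0.106 μM final), then necroptosis induced with TNFα 35 ng/mL, SMAC mimetic 700 nM and Z-VAD 140 nM for 6 h. Fixed cells immunostained for MLKL pS358 and imaged; IC50 and Ymax from 4-parameter logistic fit.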

Sequence of His-GST-TVMV-hRIPK1(1-324) (Q13546 1-324): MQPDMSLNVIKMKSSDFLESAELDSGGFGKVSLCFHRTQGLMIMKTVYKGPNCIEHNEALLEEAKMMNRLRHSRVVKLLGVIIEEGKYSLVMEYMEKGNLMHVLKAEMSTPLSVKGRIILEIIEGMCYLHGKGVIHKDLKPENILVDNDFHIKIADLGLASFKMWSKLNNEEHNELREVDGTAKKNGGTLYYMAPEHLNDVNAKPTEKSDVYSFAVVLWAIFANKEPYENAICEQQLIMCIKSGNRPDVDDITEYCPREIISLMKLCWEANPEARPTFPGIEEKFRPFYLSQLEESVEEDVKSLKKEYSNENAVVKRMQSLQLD

SMILES | IC50 [1] [nM] | IC50 ([2]; Homo sapiens) [nM] | IC50 [2] [nM]
COCC(=O)Nc1cn2nc(-c3cnc(OC)c(C(=O)NCc4cc(OCC5CC5)ccc4F)c3)ccc2n1 [Example 260, N-{[5-(cyclopropylmethoxy)-2-fluorophenyl]methyl}-2-methoxy-5-[2-(2-methoxyacetamido)imidazo[1,2-b]pyridazin-6-yl]pyridine-3-carboxamide] | 18 | 80 | 
CC(=O)Nc1cn2nc(-c3c(F)c(F)cc(C(=O)NCc4cc(OC(F)(F)F)ccc4F)c3F)ccc2n1 [Example 368, 3-{2-acetamidoimidazo [1,2-b]pyridazin-6-yl}-2,4,5-trifluoro-N-{[2-fluoro-5-(trifluoromethoxy)phenyl]methyl} benzamide] | 25 | 31 | 
COc1nc(C)c(-c2ccc3nc(NC(C)=O)cn3n2)cc1C(=O)N(C)Cc1ccccc1OC(F)(F)F [Example 283, 5-{2-acetamidoimidazo[1,2-b]pyridazin-6-yl}-2-methoxy-N,6-dimethyl-N-{[2-(trifluoromethoxy)phenyl]methyl}pyridine-3-carboxamide] | 16 | 67 | 
[2H]C([2H])(NC(=O)c1cc(-c2ccc3nc(NC(C)=O)cn3n2)c(C)nc1C)c1cc(F)cc(F)c1OC1CCOCC1 [Example 66, N-{[3,5-difluoro-2-(oxan-4-yloxy)phenyl](deutero)methyl}-5-{2-acetamidoimidazo[1,2-b]pyridazin-6-yl}-2,6-dimethylpyridine-3-carboxamide] | 9 | 8 | 
COc1nc(C)c(-c2ccc3nc(NC(C)=O)cn3n2)cc1C(=O)NC(C)c1cccc(OC(F)(F)F)c1 (stereo not shown) [Example 289, 5-{2-acetamidoimidazo[1,2-b]pyridazin-6-yl}-2-methoxy-6-methyl-N-{1-[3-(trifluoromethoxy)phenyl]ethyl}pyridine-3-carboxamide] | 16 |  | 16
CC(=O)Nc1cn2nc(-c3cc(F)c(C)c(C(=O)NCc4cccc(OC(F)(F)F)c4F)c3)ccc2n1 [Example 361, 5-{2-acetamidoimidazo [1,2-b]pyridazin-6-yl}-3-fluoro-N-{[2-fluoro-3-(trifluoromethoxy)phenyl]methyl}-2-methylbenzamide] | 42 | 135 | 
[2H]C([2H])(Oc1c(F)cc(F)cc1CNC(=O)c1cc(-c2ccc3nc(NC(=O)CC)cn3n2)cnc1OC)C1CC1 [Example 243, N-({2-[cyclopropyl(deutero)methoxy]-3,5-difluorophenyl}methyl)-2-methoxy-5-{2-propanamidoimidazo[1,2-b]pyridazin-6-yl}pyridine-3-carboxamide] | 2 | 3 | 
COc1ncc(-c2ccc3nc(NC(=O)C(C)C)cn3n2)cc1C(=O)NCc1ccc(F)c(F)c1OCC1CC1 [Example 264, N-{[2-(cyclopropylmethoxy)-3,4-difluorophenyl]methyl}-2-methoxy-5-[2-(2-methylpropanamido)imidazo[1,2-b]pyridazin-6-yl]pyridine-3-carboxamide, TFA] | 55 |  | 240
COc1nc(C)c(-c2ccc3nc(NC(C)=O)cn3n2)cc1C(=O)NC(C)c1cc(C(F)(F)F)ccc1F (stereo not shown) [Example 277, 5-{2-acetamidoimidazo[1,2-b]pyridazin-6-yl}-N-{1-[2-fluoro-5-(trifluoromethyl)phenyl]ethyl}-2-methoxy-6-methylpyridine-3-carboxamide] | 107 |  | 263
CC(=O)Nc1cn2nc(-c3cc(C(=O)NCc4cc(F)cc(F)c4O[C@H]4CCOC4)c(C)nc3C)ccc2n1 [Example 60, N-({3,5-difluoro-2-[(3S)-oxolan-3-yloxy]phenyl}methyl)-5-{2-acetamidoimidazo[1,2-b]pyridazin-6-yl}-2,6-dimethylpyridine-3-carboxamide] | 6 | 26 | 
COc1ncc(-c2ccc3nc(NC(=O)C(C)(C)C#N)cn3n2)cc1C(=O)NCc1cc(F)cc(F)c1OCC1CC1 [Example 8, 5-[2-(2-Cyano-2,2-dimethylacetamido)imidazo[1,2-b]pyridazin-6-yl]-N-{[2-(cyclopropylmethoxy)-3,5-difluorophenyl]methyl}-2-methoxypyridine-3-carboxamide] | 39 | 41 | 
CC(=O)Nc1cn2nc(-c3cc(C(=O)NCc4cc(F)cc(F)c4OC4CCCOC4)c(C)nc3C)ccc2n1 (stereo not shown) [Example 59, N-{[3,5-difluoro-2-(oxan-3-yloxy)phenyl]methyl}-5-{2-acetamidoimidazo[1,2-b]pyridazin-6-yl}-2,6-dimethylpyridine-3-carboxamide] | 12 | 17 | 
[2H]C([2H])([2H])Oc1ncc(-c2ccc3nc(NC(C)=O)cn3n2)cc1C(=O)N[C@@H](C)c1cc(OC(F)(F)F)ccc1F [Example 41, 5-{2-acetamidoimidazo[1,2-b]pyridazin-6-yl}-N-[(1S)-1-[2-fluoro-5-(trifluoromethoxy)phenyl]ethyl]-2-(D3)methoxypyridine-3-carboxamide] | 63 | 78 | 
COc1ncc(-c2ccc3nc(NC(C)=O)cn3n2)cc1C(=O)NCc1cccc(C(F)(F)F)c1 [Example 110, 5-{2-acetamidoimidazo[1,2-b]pyridazin-6-yl}-2-methoxy-N-{[3-(trifluoromethyl)phen-yl](deutero)methyl}pyridine-3-carboxamide] | 27 |  | 113
CC(=O)Nc1cn2nc(-c3cc(C(=O)NCc4cccnc4OCC4CCCC4)c(C)nc3C)ccc2n1 [Example 84, N-{[2-(cyclopentylmethoxy)pyridin-3-yl]methyl}-5-{2-acetamidoimidazo[1,2-b]pyridazin-6-yl}-2,6-dimethylpyridine-3-carboxamide] | 19 | 26 | 
COc1nc(C)c(-c2ccc3nc(NC(C)=O)cn3n2)cc1C(=O)NCc1ccccc1OC(C)C1CCCC1 (stereo not shown) [Example 302, N-{[2-(1-cyclopentylethoxy)phenyl]methyl}-5-{2-acetamidoimidazo[1,2-b]pyridazin-6-yl}-2-methoxy-6-methylpyridine-3-carboxamide] | 25 |  | 16
CC(=O)Nc1cn2nc(-c3cnc(Cl)c(C(=O)NC(C)c4ccccc4OC(F)(F)F)c3)ccc2n1 (stereo not shown) [Example 271, 2-chloro-5-{2-acetamidoimidazo[1,2-b]pyridazin-6-yl}-N-{1-[2-(trifluoromethoxy)phenyl]ethyl}pyridine-3-carboxamide] | 49 |  | 129
CC(=O)Nc1cn2nc(-c3ccc(C)c(C(=O)NCc4cc(OC(F)(F)F)ccc4F)c3)ccc2n1 [Example 394, 5-{2-acetamidoimidazo [1,2-b]pyridazin-6-yl}-N-{[2-fluoro-5-(trifluoromethoxy)phenyl]methyl}-2-methylbenzamide] | 3 | 3 | 
Cc1ncc(-c2ccc3nc(NC(=O)CO)cn3n2)cc1C(=O)N[C@@H](C)c1cc(OC(F)(F)F)ccc1F [Example 181, N-[(1S)-1-[2-fluoro-5-(trifluoromethoxy)phenyl]ethyl]-5-[2-(2-hydroxyacetamido)imidazo[1,2-b]pyridazin-6-yl]-2-methylpyridine-3-carboxamide] | 103 | 171 | 
CC(=O)Nc1cn2nc(-c3cnc(Cl)c(C(=O)NC(C)c4cc(C(F)(F)F)ccc4F)c3)ccc2n1 (stereo not shown) [Example 270, 2-chloro-5-{2-acetamidoimidazo[1,2-b]pyridazin-6-yl}-N-{1-[2-fluoro-5-(trifluoromethyl)phenyl]ethyl}pyridine-3-carboxamide] | 23 |  | 204
CC(=O)Nc1cn2nc(-c3cnc(C)c(C(=O)NC(C)c4ccccc4OC(F)(F)F)c3)ccc2n1 (stereo not shown) [Example 203, 5-{2-acetamidoimidazo[1,2-b]pyridazin-6-yl}-2-methyl-N-{1-[2-(trifluoromethoxy)phenyl]ethyl}pyridine-3-carboxamide] | > 5000 |  | > 6250
COc1ncc(-c2ccc3nc(NC(C)=O)cn3n2)cc1C(=O)NCc1cc(F)cc(F)c1OC1CC(C)OC(C)C1 (stereo not shown) [Example 103, N-({2-[(2,6-dimethyloxan-4-yl)oxy]-3,5-difluorophenyl}methyl)-5-{2-acetamidoimidazo[1,2-b]pyridazin-6-yl}-2-methoxypyridine-3-carboxamide] | 51 | 188 | 
[2H]C([2H])([2H])Oc1ncc(-c2ccc3nc(NC(C)=O)cn3n2)cc1C(=O)NCc1cc(F)cc(F)c1O[C@@H]1CCOC1 [Example 44, N-({3,5-difluoro-2-[(3R)-oxolan-3-yloxy]phenyl}methyl)-5-{2-acetamidoimidazo[1,2-b]pyridazin-6-yl}-2-(D3)methoxypyridine-3-carboxamide] | 17 | 71 | 
CC(=O)Nc1cn2nc(-c3cnc(Cl)c(C(=O)NCc4cc(F)cc(F)c4OC(C)C4CCC4)c3)ccc2n1 (stereo not shown) [Example 273, 2-chloro-N-{[2-(1-cyclobutylethoxy)-3,5-difluorophenyl]methyl}-5-{2-acetamidoimidazo[1,2-b]pyridazin-6-yl}pyridine-3-carboxamide, TFA] | 4 | 43 | 
CC(=O)Nc1cn2nc(-c3cnc(C)c(C(=O)NCc4cccc(OC(F)(F)F)c4)c3)ccc2n1 [Example 221, 5-{2-acetamidoimidazo[1,2-b]pyridazin-6-yl}-2-methyl-N-{[3-(trifluoromethoxy)phenyl]methyl}pyridine-3-carboxamide, TFA] | 49 | 52 | 
CC(=O)Nc1cn2nc(-c3cnc(C)c(C(=O)N[C@H](C)c4cc(OC(F)(F)F)ccc4F)c3)ccc2n1 (single isomer, unassigned) [Example 9-2] | 31 | 28 | 

Reference: patent US11440913B2, “Aminoimidazopyridazines as kinase inhibitors” (BRISTOL-MYERS SQUIBB COMPANY, priority 2017, dated 2022)
